In publication PMC3687672 (British Journal of Pharmacology, 2013):

How the values were obtained:
[1] = target: T1, large-conductance Ca2+-activated K+ (BKCa) channel (Homo sapiens, UniProt Q12791); experiment: single-channel inside-out patch clamp; format: cell-based
[2] = target: T1, large-conductance Ca2+-activated K+ (BKCa) channel; experiment: whole-cell patch clamp; format: cell-based

T1 sequence (Q12791 whole entry): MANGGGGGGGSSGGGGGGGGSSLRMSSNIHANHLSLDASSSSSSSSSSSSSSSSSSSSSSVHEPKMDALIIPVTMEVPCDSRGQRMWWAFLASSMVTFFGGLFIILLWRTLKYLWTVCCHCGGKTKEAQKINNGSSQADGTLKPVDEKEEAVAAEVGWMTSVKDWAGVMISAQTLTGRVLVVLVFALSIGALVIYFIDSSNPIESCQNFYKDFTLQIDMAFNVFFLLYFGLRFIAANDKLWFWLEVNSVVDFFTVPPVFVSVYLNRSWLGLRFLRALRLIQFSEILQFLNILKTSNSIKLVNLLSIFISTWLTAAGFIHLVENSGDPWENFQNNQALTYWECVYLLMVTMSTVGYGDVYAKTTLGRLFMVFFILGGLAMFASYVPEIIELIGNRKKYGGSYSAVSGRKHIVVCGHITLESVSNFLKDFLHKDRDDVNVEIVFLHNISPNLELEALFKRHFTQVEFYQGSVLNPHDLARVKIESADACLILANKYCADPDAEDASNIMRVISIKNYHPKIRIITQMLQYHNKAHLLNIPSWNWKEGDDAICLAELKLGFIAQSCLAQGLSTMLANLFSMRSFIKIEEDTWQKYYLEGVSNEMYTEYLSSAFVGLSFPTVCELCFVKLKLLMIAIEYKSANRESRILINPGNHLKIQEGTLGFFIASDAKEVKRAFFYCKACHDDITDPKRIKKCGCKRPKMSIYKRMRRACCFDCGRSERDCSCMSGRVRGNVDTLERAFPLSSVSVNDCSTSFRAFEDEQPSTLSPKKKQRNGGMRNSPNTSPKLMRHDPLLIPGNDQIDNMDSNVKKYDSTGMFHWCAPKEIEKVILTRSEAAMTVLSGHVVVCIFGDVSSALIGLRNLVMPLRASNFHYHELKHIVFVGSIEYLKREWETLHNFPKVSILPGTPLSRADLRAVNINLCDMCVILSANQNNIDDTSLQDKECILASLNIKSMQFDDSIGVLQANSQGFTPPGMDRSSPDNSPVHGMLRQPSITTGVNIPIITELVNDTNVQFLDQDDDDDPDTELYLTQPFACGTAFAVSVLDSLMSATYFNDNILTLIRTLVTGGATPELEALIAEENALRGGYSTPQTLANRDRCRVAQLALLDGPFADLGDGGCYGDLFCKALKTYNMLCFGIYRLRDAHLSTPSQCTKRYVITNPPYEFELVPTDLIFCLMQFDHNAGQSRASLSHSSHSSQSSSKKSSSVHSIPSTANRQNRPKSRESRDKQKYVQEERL

| Compound | single-channel inside-out patch clamp; whole-cell patch clamp with GDPbetaS [1] | whole-cell patch clamp [2] |
| --- | --- | --- |
| CCCCC/C=C\C/C=C\C/C=C\C/C=C\CCCC(=O)NCC(=O)O [NAGly] | 3 µM | – |
| CC(C)(O)[C@H]1O[C@H]2CC[C@@]3(C)[C@@](O)(CC[C@H]4Cc5c([nH]c6ccccc56)[C@@]43C)C2=CC1=O [paxilline] | – | 1 µM |
